Test results as given in article PMC5339874, “Fluorene-9-bisphenol is anti-oestrogenic and may cause adverse pregnancy outcomes in mice” (Nature Communications, 2017).

How the values were obtained:
CD-1 mice = assay: Uterotrophic assay, 3 days beginning on PND 21; assay type: in vivo; details: combined with 400 μg kg^−1 bw d^−1 E2; 250 and 500 mg kg^−1 d^−1 groups; P<0.01
Method: […] […] Ten mice per group were used for the assays. Error bars indicate the s.d.'s from the average. *P<0.05 compared with the corresponding control. **P<0.01 compared with the corresponding control. Significance was tested by Fisher's LSD test.

[1] = Analysis of BHPF in human serum (GC–MS); assay type: in vivo
Source text: (§1) In China, college students usually undergo a physical examination before graduation. The volunteers in this study were senior students who were undergoing a physical examination in Beijing. Fifty male and 50 female healthy volunteers (mean age, 23.5±1.2 years) who habitually used plastic water bottles were randomly recruited to participate in this study in June 2015, after appropriate ethical approval was received from the Human Ethics Committee of the Peking University Peoples' Hospital. Each participant provided informed consent and volunteered to give one 10-ml random sample of blood. Fasting blood was collected at Peking University Hospital Medical Center with vacutainer blood collection device (Chengwu Yongkang Medical Products Ltd., China) between 8 and 9 h. […] The blood was collected directly into plain 10-ml glass vacutainer tubes and spun down 30 min later for serum preparation. The serum samples were stored in glass tubes at −80 °C until analysis. The samples were fortified with 5 ng of surrogate standard BHPF-d7, and the pH was adjusted to 6.5 with ammonium acetate. β-Glucuronidase/arylsulfatase (20 μl; Sigma-Aldrich, St Louis, MO) was added to the samples, and they were incubated at 37 °C for 20 h to allow deglucuronidation. […]

[2] = Serum BHPF levels in mice after drinking-water exposure (GC–MS); assay type: in vivo; details: for concentration at 10 days: female, CD-1, mouse, serum, oral, 124.35 ng l^−1 in drinking water
Source text: as §1
Mice with a maximal difference in body weight of 1 g were selected for the experiments and randomly assigned to either the treatment or control groups. […] The BHPF levels in the cooled boiled waters from Bottle A, Bottle B and the stainless steel electric water heater were determined by GC–MS. No BHPF was detected in the cooled boiled water from the stainless steel electric water heater. […] The relative uterine weight was calculated to evaluate the anti-uterotrophic activity. […] The serum BHPF levels were analysed by GC–MS using the same method as that for human serum. The gene expressions of sprr2a and sprr2b in the uteri were determined by Q-RT-PCR.

sprr2a and sprr2b = assay: Q-RT-PCR of sprr2a and sprr2b in uteri after 10-day dosing; assay type: in vivo, mice; details: 10 days; P<0.05
Method: The uteri, ovaries and livers were collected for total RNA isolation. Total RNA was isolated using Trizol reagent (Invitrogen) and further purified by NucleoSpin RNA Clean-up (Macherey-Nagel, Germany). Fluorescence labelling of the RNA samples was performed with a Jingxin cRNA linear amplification and labelling kit (CapitalBio) according to the manufacturer's instructions. The total RNA from each pool of tissue samples (a mixture from three animals) was used for microarray analysis. Cy3 dCTP was used to label the samples. The labelled products were added to SurePrint G3 mouse gene expression 8 × 60 K microarrays (Agilent) and incubated overnight at 42 °C. Following hybridization, the gene arrays were washed and scanned using an Agilent G2565CA Microarray Scanner. Glyceraldehyde 3-phosphate dehydrogenase (GAPDH) was used as an endogenous control to monitor the quality of the target preparation. The data were processed with feature extraction software (GeneSpring GX v.11; Agilent). The raw signals were log-transformed and normalized with the percentile shift normalization method. All arrays met the minimum Agilent QA/QC standards. To verify the data from the gene array, 14 genes were chosen as candidates for Q-RT-PCR. Primers are listed in Supplementary Table 4. GAPDH was used as an endogenous control. […] The relative expression was quantified using the 2^(−ΔΔCt) method. […]

female CD-1 mice = assay: Improved anti-uterotrophic assay, daily oral gavage for 10 days beginning on PND 24; assay type: in vivo; details: BHPF at 27.8 mg kg^−1 bw d^−1
Method: The animals were fed ad libitum with a basic diet from the Laboratory Animal Center of the Academy of Military Medical Sciences (Beijing, China), and drinking water was provided ad libitum. […] The volume of vehicle or chemical solutions administered was adjusted daily based on body weight measured during the dosing period according to the volume-body weight ratio of 5 ml kg^−1 bw.

Oc1ccc(C2(c3ccc(O)cc3)c3ccccc3-c3ccccc32)cc1 [BHPF, 9,9-bis(4-hydroxyphenyl)-fluorene]
effect on uterotrophic effect of E2 (CD-1 mice): inhibited the uterotrophic effect of E2
maximal serum BHPF level ([1]; human volunteers): 0.7 ng/mL
mean serum BHPF level ([1]; volunteers with detectable BHPF): 0.34 ± 0.21 ng/mL
serum BHPF ([2]; 100 ng l^−1 BHPF group, 10 days): no serum BHPF was detected
concentration at 10 days ([2]; serum BHPF level (mean), Bottle A group (124.35 ng l^−1 BHPF in water), after enzymatic hydrolysis): 1.21 ± 1.11 ng/mL
concentration at 10 days ([2]; serum BHPF levels, range, Bottle A group): 0.36 to 2.7 ng/mL
doses significantly down-regulating sprr2a and sprr2b in uteri (sprr2a and sprr2b): ≥ 9.26 mg kg^−1 bw d^−1
anti-uterotrophic activity compared with FULV (female CD-1 mice): close to that of FULV at 2 mg kg^−1 bw d^−1
